{
  "source": "paper PMC7219108",
  "about": "“Pisum sativum Defensin 1 Eradicates Mouse Metastatic Lung Nodules from B16F10 Melanoma Cells” (International Journal of Molecular Sciences, 2020)",
  "key": {"[1]": {"system": "Fusarium solani planktonic cells", "design": "method as in PMID 17240982", "conditions": "cited from earlier work"}, "B16F10 cells": {"system": "B16F10 cells", "assay": "Mitochondrial staining (MitoTracker Red CMXRos), B16F10 cells", "format": "cell-based, murine", "conditions": "50 µM", "experimental": "Figure 2 Psd1 promotes B16F10 live cell membrane permeabilization as monitored by SYTOX Green fluorescence. (A) Psd1 untreated and hydrogen peroxide-treated B16F10 cells. (B) A total of 1.5 × 10^4 B16F10 cells were incubated with 3 or 50 µM Psd1 for 30 min. (C) 1.5 × 10^4 B16F10 cells were incubated with 50 µM Psd1 for 1 h. All experiments were performed at 37 °C. Nucleus staining is shown in green (SYTOXGreen), and mitochondria are shown in red (MitoTracker Red CMXRos). Images are shown at 20× magnification. […] (E) Psd1 induces apoptosis in B16F10 cells. B16F10 cells were treated with 50 µM Psd1 for 24 h and labeled with propidium iodide, and the DNA content was analyzed by flow cytometry for the sub-G0/G1 profile. […]\nFigure 3 Fluorescein isothiocyanate (FITC)-Psd1 was localized in the B16F10 live cell nucleus. […] (C) The mean fluorescence intensity (MIF) of MitoTracker and FITC-Psd1 labeled cells measured over time. […]\nImages were obtained in the X, Y, and Z planes of the image, giving the image a 3-dimensional depth (Z-stack) at 100× magnification with a Zeiss Cell Observer Yokogawa Spinning Disk confocal microscope (Cell Observed SD, Carl-Zeiss, Oberkochen, Germany) located in the Microscopia Óptica de Luz Gustavo de Oliveira Castro (Plamol) platform in Universidade Federal do Rio de Janeiro. […] On average, thirty cells per field were analyzed in fourteen fields by experiments. […]"}, "[2]": {"system": "Beas-2B (bronchial human respiratory epithelial) cells", "assay": "MTT cell viability, healthy Beas-2B cells", "format": "cell-based", "conditions": "3.125-50 µM, 24, 48 and 72 h"}, "[3]": {"system": "A-431 (human epidermoid carcinoma) cells", "assay": "MTT cell viability, A-431 tumor cells", "format": "cell-based", "conditions": "24 h, p < 0.001"}, "[4]": {"system": "lung inflammatory cells, C57BL/6 mice", "assay": "Lung histology (HE), inflammatory foci", "format": "in vivo, mouse", "from_the_text": "Figure 7 Psd1 inhibited the appearance of inflammatory cells in lung tissues. Two animals from each group of the in vivo experiment were anaesthetized and submitted to transcardial perfusion for further histological procedures. The lungs were removed and prepared for hematoxylin and eosin (HE) staining as described in the Materials and Methods. (A) Representative images from the lungs of one animal from each experimental group. […] The left and right panels indicate 10× and 20× magnifications, and the bars represent 200 and […], respectively. (B) Quantification of inflammatory infiltration (± SEM) was obtained in six fields, corresponding to 90% of the tissue. […] Values represent the mean ± SD of two independent experiments analyzed by one-way ANOVA and Bonferroni’s multiple comparison test.\nAfter the above procedure, two animals from each group were anaesthetized and submitted to treatment with 4% paraformaldehyde in 0.1 M phosphate buffer (pH 7.4) by transcardial perfusion. The lung was removed and immersed in the same fixative solution. The lung specimens were sliced into 5 mm pieces, dehydrated through an ascending ethanol series (70, 95, and 100% ethanol for 30 min each) and then embedded in paraffin using standard procedures. Serial 5 µm-thick sections were prepared using a sliding microtome (Leica Microsystems, Wetzlar, Germany). Hematoxylin and eosin (HE) staining wereperformed to quantify possible foci of inflammatory infiltrates and fibrosis in experimental and control animals. The stained sections were observed, and digital images were taken with a Zeiss AxioPhot fluorescence microscope (Carl-Zeiss, Oberkochen, Germany). Specifically, two slices of each sample (six fields of each slice corresponding to approximately 90% of the slice) were used for quantitative analysis to obtain the mean value."}, "[5]": {"system": "HSP-2 (human hepatocyte) cells", "assay": "Cell viability, healthy HSP-2 cells", "format": "cell-based", "conditions": "6 and 30 µM, 3 h"}},
  "data": [
    {"substance": "Psd1: 46-amino acid residue plant defensin isolated from pea seeds, expressed in Pichia pastoris (PDB 1JKZ) (KTCEHLADTYRGVCFTNASCDDHCKNKAHLISGTCHNWKCFCTQNC)", "values": [
      {"measurement": "Internalization and cell cycle effect", "setting": "[1]", "value": "internalized in Fusarium solani planktonic cells, directing their cell cycle impairment and causing fungal endoreduplication"},
      {"measurement": "Mitochondria red marker (MitoTracker)", "setting": "B16F10 cells; 30 min", "value": "lower mitochondria red marker"},
      {"measurement": "Mitochondria red fluorescence (MitoTracker)", "setting": "B16F10 cells; 1 h, probably superposition of SYTOXGreen and MitoTracker signals", "value": "brighter red fluorescence signal"},
      {"measurement": "Beas-2B cell viability (MTT)", "setting": "[2]", "value": "no alteration in cell viability was observed even after 72 h of exposure"},
      {"measurement": "A-431 growth, result in words (MTT)", "setting": "[3]; 12.5 µM", "value": "decreased growth"},
      {"measurement": "Maximum reduction of A-431 growth (MTT)", "setting": "[3]; 50 µM", "value": 20, "unit": "%"},
      {"measurement": "Inflammatory foci, Psd1 alone", "setting": "[4]; 1 mg/kg Psd1 alone, i.v., day 21, p < 0.001 vs B16F10", "value": "very low inflammatory foci"},
      {"measurement": "Number of lung inflammatory cells", "setting": "[4]; 1 mg/kg Psd1 i.v. with B16F10 cells", "value": "near zero"},
      {"measurement": "Accumulation of lung inflammatory cells", "setting": "[4]; 1 and 3 mg/kg Psd1 i.v. with B16F10 cells, day 21, p < 0.001 vs B16F10", "value": "significant reduction in the accumulation of inflammatory cells"},
      {"measurement": "HSP-2 cell viability", "setting": "[5]", "value": "no alteration in cell viability"}
    ]}
  ]
}
